Test results: the NIST ThermoML archive (doi:10.1021/acs.jced.8b00554)

Experiment: xn = mol fraction of the nth substance listed
Conditions: Liquid, Vibrating tube method

CCCCCCCCCC [decane] + CCCO
mass density [kg/m3]
Conditions	323.15 K	333.15 K
100 kPa, x2 = 0.1391	–	698
100 kPa, x2 = 0.1907	–	699.22
100 kPa, x2 = 0.3001	–	702.36
100 kPa, x2 = 0.4326	–	706.94
100 kPa, x2 = 0.6863	–	723.34
100 kPa, x2 = 0.8711	–	744.53
1000 kPa, x2 = 0.8711	–	745.47
1010 kPa, x2 = 0.3001	–	703.4
1010 kPa, x2 = 0.4326	–	708.03
1010 kPa, x2 = 0.6863	–	724.38
1020 kPa, x2 = 0.1391	–	699.13
1020 kPa, x2 = 0.1907	–	700.31
2000 kPa, x2 = 0.1391	–	700.15
2000 kPa, x2 = 0.1907	–	701.33
2000 kPa, x2 = 0.6863	–	725.39
2010 kPa, x2 = 0.4326	–	709.06
2020 kPa, x2 = 0.3001	–	704.44
2020 kPa, x2 = 0.8711	–	746.44
3000 kPa, x2 = 0.3001	–	705.44
3010 kPa, x2 = 0.1391	–	701.15
3010 kPa, x2 = 0.1907	–	702.33
3010 kPa, x2 = 0.4326	–	710.06
3010 kPa, x2 = 0.6863	–	726.41
3010 kPa, x2 = 0.8711	–	747.43
4000 kPa, x2 = 0.1391	–	702.13
4000 kPa, x2 = 0.1907	–	703.34
4010 kPa, x2 = 0.4326	–	711.1
4010 kPa, x2 = 0.8711	–	748.4
4020 kPa, x2 = 0.3001	–	706.45
4020 kPa, x2 = 0.6863	–	727.43
5000 kPa, x2 = 0.1907	–	704.33
5000 kPa, x2 = 0.3001	–	707.44
5010 kPa, x2 = 0.1391	–	703.13
5010 kPa, x2 = 0.6863	–	728.46
5020 kPa, x2 = 0.4326	–	712.1
5020 kPa, x2 = 0.8711	–	749.4
6000 kPa, x2 = 0.1391	–	704.1
6000 kPa, x2 = 0.1907	–	705.29
6000 kPa, x2 = 0.3001	–	708.43
6010 kPa, x2 = 0.4326	–	713.11
6010 kPa, x2 = 0.6863	–	729.45
6020 kPa, x2 = 0.8711	–	750.38
7000 kPa, x2 = 0.1391	–	705.07
7000 kPa, x2 = 0.4326	–	714.11
7000 kPa, x2 = 0.8711	–	751.38
7010 kPa, x2 = 0.3001	–	709.43
7020 kPa, x2 = 0.1907	–	706.27
7020 kPa, x2 = 0.6863	–	730.46
8000 kPa, x2 = 0.1391	–	706.06
8000 kPa, x2 = 0.4326	–	715.11
8010 kPa, x2 = 0.1907	–	707.25
8010 kPa, x2 = 0.6863	–	731.46
8020 kPa, x2 = 0.3001	–	710.42
8020 kPa, x2 = 0.8711	–	752.35
9010 kPa, x2 = 0.1391	–	707
9010 kPa, x2 = 0.1907	–	708.23
9010 kPa, x2 = 0.3001	–	711.39
9010 kPa, x2 = 0.4326	–	716.11
9010 kPa, x2 = 0.6863	–	732.47
9010 kPa, x2 = 0.8711	–	753.31
10000 kPa, x2 = 0.1391	–	707.95
10000 kPa, x2 = 0.4326	726.96	717.1
10010 kPa, x2 = 0.3001	–	712.39
10010 kPa, x2 = 0.6863	743.54	733.45
10020 kPa, x2 = 0.1907	–	709.15
10020 kPa, x2 = 0.8711	764.05	754.28
11000 kPa, x2 = 0.1391	717.57	–
11000 kPa, x2 = 0.1907	719.05	710.11
11010 kPa, x2 = 0.1391	–	708.9
11010 kPa, x2 = 0.3001	723.06	–
11010 kPa, x2 = 0.4326	727.85	–
11010 kPa, x2 = 0.6863	744.43	734.43
11020 kPa, x2 = 0.3001	–	713.35
11020 kPa, x2 = 0.4326	–	718.06
11020 kPa, x2 = 0.8711	764.93	755.24
12000 kPa, x2 = 0.1907	–	711.08
12000 kPa, x2 = 0.3001	723.94	–
12000 kPa, x2 = 0.4326	–	719.03
12010 kPa, x2 = 0.1391	718.43	709.82
12010 kPa, x2 = 0.6863	745.32	735.38
12020 kPa, x2 = 0.1907	719.94	–
12020 kPa, x2 = 0.3001	–	714.31
12020 kPa, x2 = 0.4326	728.74	–
12020 kPa, x2 = 0.8711	765.79	756.17
13000 kPa, x2 = 0.1391	719.28	–
13000 kPa, x2 = 0.8711	–	757.09
13010 kPa, x2 = 0.1391	–	710.75
13010 kPa, x2 = 0.1907	720.8	712
13010 kPa, x2 = 0.3001	724.81	–
13010 kPa, x2 = 0.4326	–	719.98
13010 kPa, x2 = 0.6863	746.21	736.35
13020 kPa, x2 = 0.3001	–	715.25
13020 kPa, x2 = 0.4326	729.62	–
13020 kPa, x2 = 0.8711	766.65	–
14000 kPa, x2 = 0.1907	–	712.92
14000 kPa, x2 = 0.3001	725.66	–
14000 kPa, x2 = 0.4326	730.47	–
14000 kPa, x2 = 0.6863	747.08	–
14000 kPa, x2 = 0.8711	–	758.02
14010 kPa, x2 = 0.1391	720.12	711.65
14010 kPa, x2 = 0.3001	–	716.18
14020 kPa, x2 = 0.1907	721.64	–
14020 kPa, x2 = 0.4326	–	720.92
14020 kPa, x2 = 0.6863	–	737.27
14020 kPa, x2 = 0.8711	767.51	–
15000 kPa, x2 = 0.4326	731.33	–
15000 kPa, x2 = 0.6863	747.92	–
15000 kPa, x2 = 0.8711	768.36	–
15010 kPa, x2 = 0.1391	720.95	712.53
15010 kPa, x2 = 0.1907	–	713.82
15010 kPa, x2 = 0.3001	726.5	–
15010 kPa, x2 = 0.4326	–	721.82
15010 kPa, x2 = 0.6863	–	738.18
15010 kPa, x2 = 0.8711	–	758.93
15020 kPa, x2 = 0.1907	722.47	–
15020 kPa, x2 = 0.3001	–	717.1
16000 kPa, x2 = 0.1907	723.29	–
16000 kPa, x2 = 0.6863	748.78	–
16000 kPa, x2 = 0.8711	769.18	–
16010 kPa, x2 = 0.1391	721.76	713.4
16010 kPa, x2 = 0.1907	–	714.7
16010 kPa, x2 = 0.3001	727.33	717.99
16010 kPa, x2 = 0.4326	732.15	722.73
16010 kPa, x2 = 0.6863	–	739.1
16020 kPa, x2 = 0.8711	–	759.81
17000 kPa, x2 = 0.1391	722.56	–
17000 kPa, x2 = 0.6863	749.59	740
17000 kPa, x2 = 0.8711	–	760.7
17010 kPa, x2 = 0.1907	724.12	–
17010 kPa, x2 = 0.3001	–	718.88
17010 kPa, x2 = 0.4326	732.96	723.6
17010 kPa, x2 = 0.8711	770.01	–
17020 kPa, x2 = 0.1391	–	714.27
17020 kPa, x2 = 0.1907	–	715.58
17020 kPa, x2 = 0.3001	728.15	–
18000 kPa, x2 = 0.1391	–	715.12
18000 kPa, x2 = 0.1907	–	716.42
18000 kPa, x2 = 0.3001	–	719.72
18000 kPa, x2 = 0.4326	–	724.49
18000 kPa, x2 = 0.6863	–	740.88
18010 kPa, x2 = 0.1391	723.35	–
18010 kPa, x2 = 0.3001	728.94	–
18010 kPa, x2 = 0.4326	733.77	–
18010 kPa, x2 = 0.6863	750.41	–
18010 kPa, x2 = 0.8711	770.81	–
18020 kPa, x2 = 0.1907	724.91	–
18020 kPa, x2 = 0.8711	–	761.56
19000 kPa, x2 = 0.4326	734.57	–
19010 kPa, x2 = 0.1391	–	715.93
19010 kPa, x2 = 0.1907	725.67	717.24
19010 kPa, x2 = 0.3001	729.72	–
19010 kPa, x2 = 0.4326	–	725.32
19010 kPa, x2 = 0.6863	751.21	741.72
19010 kPa, x2 = 0.8711	771.61	–
19020 kPa, x2 = 0.1391	724.11	–
19020 kPa, x2 = 0.3001	–	720.57
19020 kPa, x2 = 0.8711	–	762.39
20000 kPa, x2 = 0.3001	–	721.37
20010 kPa, x2 = 0.1391	724.85	–
20010 kPa, x2 = 0.1907	726.42	718.03
20010 kPa, x2 = 0.4326	735.37	–
20010 kPa, x2 = 0.6863	–	742.58
20010 kPa, x2 = 0.8711	772.39	763.23
20020 kPa, x2 = 0.1391	–	716.72
20020 kPa, x2 = 0.3001	730.47	–
20020 kPa, x2 = 0.4326	–	726.17
20020 kPa, x2 = 0.6863	752	–
